We go through one compound from PubChem BioAssay AID743133 (The Scripps Research Institute Molecular Screening Center, 2013).

SMILES strings stand for the structures.

For the test, the target named is Acyl-protein thioesterase 1 (Homo sapiens) + Acyl-protein thioesterase 2 (Homo sapiens) (UniProt O75608+O95372). Nature of the test: reversibility of LYPLA1/LYPLA2 inhibition after gel filtration, late-stage follow-up, mechanism study for LYPLA1/LYPLA2 inhibitor project, cell lysate, HeLa lysate, fluorescence gel ABPP (AID 743133). As to conditions: HeLa lysate gel-based ABPP, FP-Rh; for recovery after gel filtration: stronger effect = lower value; for inhibition: stronger effect = higher value.
Sequence of Acyl-protein thioesterase 1 (Homo sapiens) + Acyl-protein thioesterase 2 (Homo sapiens) (O75608 whole entry, looked up, one chain of several): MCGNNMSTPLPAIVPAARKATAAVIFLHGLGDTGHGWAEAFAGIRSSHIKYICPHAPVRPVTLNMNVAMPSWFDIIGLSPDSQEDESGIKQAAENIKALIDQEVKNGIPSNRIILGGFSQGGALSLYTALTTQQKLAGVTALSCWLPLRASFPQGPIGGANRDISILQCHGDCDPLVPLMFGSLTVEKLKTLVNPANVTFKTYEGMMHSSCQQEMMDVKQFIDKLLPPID

For `O=C(ON1C(=O)C2CN(C(=O)N3CCOCC3)CCN2C1=O)N1CCC(CCc2ccc(Cl)cc2)CC1` (stereo unspecified), the recovery after gel filtration (at 0.2 µM) is 0% and the recovery after gel filtration (at 1 µM) was 0%. For the same compound, the inhibition (in general, the percentage by which the read-out fell short of the control) reads like this: (at 0.2 µM, post-gel filtration inhibition) 85%; (at 0.2 µM, pre-gel filtration inhibition) 85%; (at 1 µM, post-gel filtration inhibition) 95%; (at 1 µM, pre-gel filtration inhibition) 95%.
